Source: PMC11154005 (Science (New York, N.Y.), 2023)

Molecular target: GerA complex (GerAA-GerAB-GerAC) (Bacillus subtilis, UniProt P07869)
Assay: membrane depolarisation, DiSC3
Type: cell-based
Details: 50 mM L-alanine; 30 min after addition; agonist, recognised by GerAB subunit

Sequence of GerA complex (GerAA-GerAB-GerAC) (P07869 whole entry): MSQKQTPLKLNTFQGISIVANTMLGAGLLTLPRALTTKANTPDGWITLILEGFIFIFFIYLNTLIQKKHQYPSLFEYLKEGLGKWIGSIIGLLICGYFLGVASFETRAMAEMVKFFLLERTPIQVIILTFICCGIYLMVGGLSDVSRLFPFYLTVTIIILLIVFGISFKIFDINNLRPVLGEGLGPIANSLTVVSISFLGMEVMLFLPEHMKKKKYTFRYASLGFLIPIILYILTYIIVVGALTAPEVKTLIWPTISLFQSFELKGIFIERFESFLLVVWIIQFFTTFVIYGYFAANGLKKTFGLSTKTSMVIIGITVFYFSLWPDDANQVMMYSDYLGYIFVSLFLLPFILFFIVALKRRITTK
Sequence of GerA complex (GerAA-GerAB-GerAC) (P07870 18-373, further chain): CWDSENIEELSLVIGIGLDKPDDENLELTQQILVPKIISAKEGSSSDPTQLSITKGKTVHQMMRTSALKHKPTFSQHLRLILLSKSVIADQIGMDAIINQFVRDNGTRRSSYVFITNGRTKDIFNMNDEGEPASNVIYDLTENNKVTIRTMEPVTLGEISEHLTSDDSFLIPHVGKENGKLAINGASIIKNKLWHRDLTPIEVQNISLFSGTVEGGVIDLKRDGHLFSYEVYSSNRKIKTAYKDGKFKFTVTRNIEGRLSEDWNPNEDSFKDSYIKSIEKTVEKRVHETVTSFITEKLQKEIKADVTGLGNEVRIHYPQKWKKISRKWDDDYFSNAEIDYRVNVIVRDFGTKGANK
Sequence of GerA complex (GerAA-GerAB-GerAC) (P07868 whole entry, further chain): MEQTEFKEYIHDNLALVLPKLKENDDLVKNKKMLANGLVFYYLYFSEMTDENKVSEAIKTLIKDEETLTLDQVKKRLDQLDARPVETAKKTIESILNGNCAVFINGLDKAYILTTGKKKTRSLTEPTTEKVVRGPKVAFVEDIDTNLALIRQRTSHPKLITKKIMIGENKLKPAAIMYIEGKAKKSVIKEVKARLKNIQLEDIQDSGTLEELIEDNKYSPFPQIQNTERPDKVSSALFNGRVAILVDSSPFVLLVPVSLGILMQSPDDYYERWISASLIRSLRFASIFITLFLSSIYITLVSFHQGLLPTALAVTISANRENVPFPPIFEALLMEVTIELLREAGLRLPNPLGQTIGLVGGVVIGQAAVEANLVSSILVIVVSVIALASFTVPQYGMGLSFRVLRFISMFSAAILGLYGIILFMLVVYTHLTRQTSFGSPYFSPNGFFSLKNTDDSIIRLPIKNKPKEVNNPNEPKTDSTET

For `C[C@H](N)C(=O)O` [L-alanine], the “% reduction in DiSC3(5) fluorescence at 50 mM” value was 30%.
